Entries after “also recorded” stand apart in the source; their conditions may differ.
Columns and labels:
[1] = test system: participants with primary mitochondrial myopathy (PMM); assay: Primary Mitochondrial Myopathy Symptom Assessment (PMMSA) total fatigue score, MMPOWER-3; format: in vivo, human
Protocol: (§1) MMPOWER-3 was a 24-week , randomized, double-blind, parallel-group, placebo-controlled clinical trial for adults with PMM conducted at 27 clinical research centers in 7 countries (Canada, Denmark, England, Germany, Hungary, Italy, and the United States).
(§2) After screening (7–28 days), eligible participants were randomized in a 1:1 ratio to receive either 24-weeks of once-daily SC dosing of 40 mg of elamipretide or placebo. Study drug or placebo was self-administered subcutaneously by trained participants or their caregivers, at rotating sites around 4 quadrants of the abdomen or the thighs. Treatment began at the baseline visit with assessments at weeks 4, 12, and 24.
(§3) Coprimary endpoints evaluated the effect of elamipretide for 24 weeks including the distance walked (in meters) on the 6MWT and the total fatigue score on the Primary Mitochondrial Myopathy Symptom Assessment (PMMSA), previously described in detail.[31] The full PMMSA assesses the severity of 10 of the most common symptoms of PMM using the following 4-point scale (not at all[1] to severe; described later). PMMSA total fatigue score (TFS) focuses on myopathic symptoms most commonly associated with PMM (severity of tiredness and muscle weakness at rest and during activities, as described by participants).
The PMMSA was performed during screening, baseline, and daily throughout the 24-week study period. Other efficacy endpoints were performed at screening, baseline, and at weeks 4, 12, and 24 of randomized treatment.
(§4) Efficacy was assessed in the intention-to-treat (ITT) population, defined as all participants who received at least 1 dose of investigational medication, and the per-protocol (PP) population, which included all ITT participants without defined protocol violations/deviations identified per blinded data review before database lock. These protocol violations/deviations included not meeting inclusion/exclusion criteria or having a selected major protocol deviation deemed to potentially affect efficacy findings; not completing the study; not receiving investigational treatment within 2 days before the week 24 visit; having <80% compliance to investigational product; and not completing the study. Safety was assessed in the safety population, defined as all participants who received at least 1 dose of investigational medication.
(§5) Primary and secondary efficacy outcomes were assessed as the change from baseline to each on-treatment time point with the primary time point being end of treatment (week 24). Analyses of continuous endpoints were conducted using a mixed-model repeated measures approach, with fixed effects for treatment, visit, the treatment-by-visit interaction, and participant as a random effect. The baseline value and a baseline-by-visit interaction for the endpoint were included as covariates. A family-wise alpha level of 0.05 was maintained for the primary endpoints, using Hochberg procedure at the primary time point of 24 weeks. […] If not, the endpoint with the smaller p value of the 2 was considered statistically significant if the p value was ≤0.025 (2-sided ).
(§6) Given the extensive genetic heterogeneity of the study population, an exploratory analysis of genetic subgroups by genomic alteration (mtDNA and nDNA) was performed using the same methods as described for the primary efficacy endpoints earlier (ITT population using similar mixed-model repeated measure [MMRM] models).

[2] = test system: participants with primary mitochondrial myopathy (PMM); assay: MMPOWER-3 overall outcome on primary and secondary efficacy endpoints; format: in vivo, human; details: 40 mg/d SC, 24 weeks, vs placebo
Source text: as §3, with “participants). […]” for “participants).”
Other secondary endpoints included the patient global impression (PGI) and clinician global impression (CGI) of PMM symptoms. PGI and CGI assess patient and clinician overall assessment of the severity of patients' symptoms related to PMM on a 5-point scaled question scored 0 to 4 (0 = none, 1 = mild, 2 = moderate, 3 = severe, and 4 = very Severe) and changes to their symptoms on a 7-point scale scored −3 to 3 (−3 = very much worse, −2 = moderately worse, −1 = a little worse, 0 = no change, 1 = a little better, 2 = moderately better, and 3 = very much better).
Primary and secondary efficacy outcomes were assessed as the change from baseline to each on-treatment time point with the primary time point being end of treatment (week 24). […]

[3] = Population pharmacokinetic and exposure-response analysis (NONMEM), MMPOWER-3; format: in vivo, human
Protocol: The PK population included 106 participants randomized and treated with elamipretide, with at least 1 PK sample taken during their participation. PK modeling for elamipretide and its metabolites, M1 and M2, were performed using NONMEM computer software. Covariates, such as age, genotype, weight, height, lean body mass, body mass index, liver function tests, serum creatinine, and renal function (as described by estimated glomerular filtration rate [eGFR]) were analyzed. The exposure-response analysis examined response based on the 6MWT as a function of steady-state exposure to elamipretide and its metabolites.

[4] = test system: participants with primary mitochondrial myopathy (PMM); assay: 6-minute walk test (6MWT), MMPOWER-3 phase 3 trial; format: in vivo, human
Protocol: as §1, §2, §3, §4, §5, §6
Because of a potential data entry error, which was later identified in post hoc data analysis, 3 participants were misclassified in the clinical study report as having a pathogenic mtDNA variant. […] Accordingly, these participants were moved from the mtDNA group into the nDNA cohort for the included genetic alteration analyses. 6MWT for 1 participant at week 24 was deemed unusable because the participant inadvertently received walking assistance and was therefore not included in the 6MWT analyses. Study protocol and statistical analysis plan were published on ClinicalTrials.gov updated on January 24th 2022 (NCT03323749).[32]

[5] = cited from earlier work
Source text: Elamipretide is an investigational mitochondrial-targeting agent in development for treating patients with a variety of mitochondrial diseases.[10][-][13] Elamipretide is a water-soluble, aromatic, cationic, mitochondria-targeting tetrapeptide that readily penetrates and transiently localizes to the inner mitochondrial membrane where it associates with cardiolipin to improve membrane stability and restore supercomplex formation, thereby enhancing adenosine triphosphate synthesis in several organs including the heart, kidney, neurons, and skeletal muscle, and reduce reactive oxygen species (ROS ...

[6] = test system: participants with primary mitochondrial myopathy (PMM); assay: Safety and tolerability (adverse events), MMPOWER-3; format: in vivo, human
Protocol: Safety and tolerability of elamipretide at a dose of 40 mg/d SC were assessed through recording of adverse events (AEs), ascertained through self-report, vital signs, physical examination, ECGs, and clinical laboratory evaluations. Adverse events were assessed for severity and relationship to study medication throughout the 24-week study. Safety measures were assessed during screening, baseline and weeks 4, 12, and 24.
as §4

[7] = 40 mg/d SC, 24 weeks, listed as Elamipretide
[8] = AEs reported by ≥ 5% of participants in either group, n = 109, 40 mg/d SC, 24 weeks
[9] = safety population n = 109, 40 mg/d SC, 24 weeks

Question: What does the source list for elamipretide?
Answer: Difference between elamipretide and placebo in LS mean change from baseline to week 24 on PMMSA total fatigue score ([1]; ITT population, 40 mg/d SC, 24 weeks, 95% CI −0.69 to 0.54, p = 0.81): −0.07; LS mean (SE) of change from baseline to week 24 on the PMMSA total fatigue score ([1]; ITT population, 40 mg/d SC, 24 weeks, MMRM, SEM): −1.13 (±0.22); Difference between elamipretide and placebo in change from baseline to week 24 on PMMSA total fatigue score, per-protocol analysis ([1]; PP population, 40 mg/d SC, 24 weeks, 95% CI −0.54 to 0.72, p = 0.78): 0.09; LS mean (SE) of change from baseline at week 24 on PMMSA TFS, mtDNA alteration subgroup ([1]; participants with mtDNA alteration, 40 mg/d SC, 24 weeks, SEM): −1.3 (±0.2424); Between-group difference in change from baseline at week 24 on PMMSA TFS, mtDNA alteration subgroup ([1]; participants with mtDNA alteration, 95% CI −0.9 to 0.5, p = 0.55): −0.21; LS mean (SE) of change from baseline at week 24 on PMMSA TFS, nDNA alteration subgroup ([1]; participants with nDNA alteration (post hoc analysis), 40 mg/d SC, 24 weeks, SEM): −0.45 (±0.25); Between-group difference in change from baseline at week 24 on PMMSA TFS, nDNA alteration subgroup ([1]; participants with nDNA alteration (post hoc), p = 0.93): 0.03; Overall outcome on efficacy endpoints (6MWT, PMMSA TFS, secondary endpoints) versus placebo [2]: did not improve outcomes in the 6MWT and PMMSA TFS; also recorded: did not meet either primary or secondary endpoints; also recorded: did not demonstrate statistically significant changes on the primary endpoints; Covariate influence on systemic or absorption PK parameters (population PK model) ([3]; PK population 106 participants, NONMEM, systemic parameters scaled allometrically): No covariates influenced the systemic or absorption parameters; Exposure-response: 6MWT change and fractional change at week 24 vs day 1 as a function of elamipretide steady state area under the curve ([3]; participants with an nDNA alteration, p = 0.0262 and p = 0.0345, respectively): increase; also recorded: statistically significant correlation; Difference between elamipretide and placebo in LS mean change from baseline in 6MWT distance at week 24 ([4]; ITT population, 40 mg/d SC, 24 weeks, 95% CI −18.7 to 12.3, p = 0.69): −3.2 meters; Least squares mean (SE) of change from baseline in distance walked on 6MWT at week 24 ([4]; ITT population, elamipretide 40 mg/d SC once daily, 24 weeks, MMRM, SEM): 14.1 (±5.7) meters; Difference between elamipretide and placebo in change from baseline in 6MWT distance at week 24, per-protocol analysis ([4]; PP population, 40 mg/d SC, 24 weeks, 95% CI −16.9 to 12.5, p = 0.77): −2.2 meters; LS mean (SE) of change from baseline in 6MWT distance at week 24, mtDNA alteration subgroup ([4]; participants with mtDNA alteration (ITT), elamipretide n = 74, 40 mg/d SC, 24 weeks, SEM): 14.0 (±6.1) meters; Between-group difference in change from baseline in 6MWT distance at week 24, mtDNA alteration subgroup ([4]; participants with mtDNA alteration, favoring placebo, 95% CI −28.1 to 6.1, p = 0.21): −11.0 meters; LS mean (SE) change from baseline in 6MWT distance at week 24, nDNA alteration subgroup ([4]; participants with nDNA alteration (post hoc analysis), elamipretide n = 29, 40 mg/d SC, 24 weeks, SEM): 25.5 (±8.0) meters; Between-group difference in change from baseline in 6MWT distance at week 24, nDNA alteration subgroup ([4]; participants with nDNA alteration (post hoc), favoring elamipretide, 95% CI 3.1–47.3, p = 0.03): 25.2 meters; Solubility in water (description) [5]: water-soluble; AE with an outcome of death or hospitalization ([6]; 40 mg/d SC, 24 weeks): No participants; Severity (intensity) of most adverse events ([6]; 40 mg/d SC, 24 weeks): mild or moderate; Tolerability of subcutaneous elamipretide ([6]; 40 mg/d SC, 24 weeks): generally well tolerated; Severity (intensity) of most adverse events [6, 7]: mild to moderate; Tolerability of subcutaneous elamipretide [6, 7]: well-tolerated; Diarrhea [6, 8]: 3 (2.8) n (%); Dizziness [6, 8]: 6 (5.5) n (%); Eosinophil count increased [6, 8]: 7 (6.4) n (%); Fall [6, 8]: 6 (5.5) n (%); Headache [6, 8]: 8 (7.3) n (%); Injection site bruising [6, 8]: 9 (8.3) n (%); Injection site erythema [6, 8]: 94 (86.2) n (%); Injection site hematoma [6, 8]: 0 n (%); Injection site hemorrhage [6, 8]: 7 (6.4) n (%); Injection site induration [6, 8]: 31 (28.4) n (%); Injection site mass [6, 8]: 9 (8.3) n (%); Injection site nodule [6, 8]: 11 (10.1) n (%); Injection site pain [6, 8]: 43 (39.4) n (%); Injection site pruritus [6, 8]: 82 (75.2) n (%); Injection site swelling [6, 8]: 42 (38.5) n (%); Injection site urticaria [6, 8]: 14 (12.8) n (%); Nasopharyngitis [6, 8]: 8 (7.3) n (%); Nausea [6, 8]: 5 (4.6) n (%); Upper respiratory tract infection [6, 8]: 7 (6.4) n (%); AEs reported as treatment-related AEs ([6]; elamipretide group, 40 mg/d SC, 24 weeks): 97.2%; Percentage of participants with serious adverse events (SAEs) ([6]; n = 5/109, not deemed to be treatment related): 4.6%; Incidence of AEs leading to discontinuation ([6]; n = 8/109): 7.3%; Percentage of participants reporting AEs during the treatment period ([6]; n = 107/109, 40 mg/d SC, 24 weeks): 98.2%; Any AE [6, 9]: 107 (98.2) n (%); Any AE leading to treatment discontinuation [6, 9]: 8 (7.3) n (%); Any AE leading to treatment interruption [6, 9]: 13 (11.9) n (%); Any SAE [6, 9]: 5 (4.6) n (%); Any treatment-related AE [6, 9]: 106 (97.2) n (%); Any treatment-related SAE [6, 9]: 0 n (%); Death [6, 9]: 0 n (%)
